Test results reported in patent US9969858B2, “Metalloinsertor conjugates” (CALIFORNIA INSTITUTE OF TECHNOLOGY, priority 2015, dated 2018).

Tested on: duplex DNA containing a CC mismatch
Assay: Photocleavage of mismatched DNA upon irradiation (competition titration)
Assay type: biochemical
Conditions: 340-440 nm irradiation
Protocol: For [RhPt] Conjugate, a single-stranded DNA oligomer with the sequence [NT]. ID NO: 2) (underline denotes the mismatch) was labeled at the 5'-end with [^32P]-ATP and polynucleotide kinase (PNK) at 37° C. for 1 h. The radiolabeled DNA was purified by gel electrophoresis and annealed to its mismatched complement (containing a CC mismatch) by heating to 90° C. in buffer (100 mM NaCl, 20 mM NaPi, pH 7.1), followed by slow cooling to ambient temperature over 3 h, to give a final concentration of 2 μM duplex DNA. Racemic solutions of the metal complex (containing all stereoisomers) were prepared in Milli-Q water over a range of concentrations (100 nM-50 μM). For each sample, 4 μM […] (5 μl), which photocleaves DNA at mismatched sites, 2 μM annealed mismatched duplex DNA (10 μl), and the non-photocleaving competitor complex at various concentrations (5 μl) were combined to give 1 μM […] and 1 μM duplex DNA as the final concentrations. […] The amounts of DNA in each band were analyzed by autoradiography and quantitated by phosphorimagery (ImageQuant) (FIG. 20). […] To assess the binding of the rhodium subunit of RhPt at the CC mismatch, the fraction of cleaved DNA was quantified and expressed as a percentage of the total DNA in each lane and plotted against the log of the concentration of RhPt. […]

Substance: [Rh(chrysi)(HDPA)(Amal)Pt(DACH]^3+ [RhPt]
- photocleavage of DNA upon irradiation: does not photocleave DNA

Substance: rac-[Rh(bpy)2chrysi]Cl3 [rac-[Rh(bpy)2chrysi]3+]
- photocleavage of DNA upon irradiation: does photocleave DNA at mismatched sites
